Measured values from publication PMC11558545, “Mechanistic Insights into the Function of 14-3-3 Proteins as Negative Regulators of Brassinosteroid Signaling in Arabidopsis” (Plant and Cell Physiology, 2024).
Square brackets hold non-standard residues; d marks the D form. Peptide text beside a SMILES is read from it. pS = N[C@@H](COP(=O)(O)O)C(=O)O

Tests used:
[1] = target: T1, Arabidopsis 14-3-3 isoform kappa (14-3-3κ) (Arabidopsis thaliana, UniProt P48348); test: biochemical; assay type: binding
T1 construct: Full-length At14-3-3-κ^1−248 (Uniprot-ID P48348, http://uniprot.org); thioredoxin A (trxA) fusion (N, cleaved yes); 8xHis (N, cleaved yes); StrepII (N, cleaved yes); made in house; host or cells: E. coli BL21 (DE3) RIL
T1 sequence (P48348 whole entry, the tested form may be a part, canonical isoform): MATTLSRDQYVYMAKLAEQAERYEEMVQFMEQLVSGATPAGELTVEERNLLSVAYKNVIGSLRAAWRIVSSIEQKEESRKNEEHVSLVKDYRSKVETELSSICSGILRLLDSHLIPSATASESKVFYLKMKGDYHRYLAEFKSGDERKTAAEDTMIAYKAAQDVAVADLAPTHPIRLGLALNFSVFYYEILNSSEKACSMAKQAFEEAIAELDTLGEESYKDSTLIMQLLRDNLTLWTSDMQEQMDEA
Description: Full-length At14-3-3-κ^1−248 (Uniprot-ID P48348, http://uniprot.org), At14-3-3-λ^1−248 (P48349), At14-3-3-ω^1−259 (Q01525) or C-terminal truncated At14-3-3-κ^1−240, At14-3-3-λ^1−240 or At14-3-3-ω^1−237 isoforms and BIN2^7−380 from Arabidopsis were cloned from synthetic genes codon-optimized for expression in E. coli (Geneart, Thermofisher, Tauberbischofsheim, Germany) into vector pMH-HStrxT providing an N-terminal thioredoxin A (trxA) fusion protein containing 8xHis and StrepII affinity tags, and a tobacco etch virus protease (TEV) recognition site. Protein expression in E. coli BL21 (DE3) RIL grown to OD600nm= 0.6 was induced with 0.2 mM ispropyl β-D-galactoside in terrific broth at 16°C for 16 h. Cells were collected by centrifugation at 4500 × g for 30 min, washed in PBS buffer, centrifuged again at 4500 × g for 15 min and snap-frozen in liquid N2. For protein purification cells were resuspended in buffer A (20 mM Tris–HCl pH 8.0, 500 mM NaCl), and lysed by sonication (Branson DS450). The lysate was cleared by centrifugation at 7000 × g for 60 min and filtrated using a 0.45 µm molecular weight cutoff filter (Pall Corporation, Port Washington, NY, USA). The supernatant was loaded onto a Ni^2+ affinity column (HisTrap HP 5 mL, Cytiva Life Sciences, Freiburg im Breisgau, Germany), washed with buffer A and eluted in buffer A supplemented with 250 mM imidazole pH 8.0. […]

[2] = target: T2, 14-3-3 ω (biotinylated dimer on streptavidin chip) (Arabidopsis thaliana, UniProt Q01525); test: Grating coupled interferometry (GCI) binding kinetics versus 14-3-3 ω; details: 25°C, 1-to-1 (2:2) binding model
T2 construct: Full-length At14-3-3-κ^1−248 (Uniprot-ID P48348, http://uniprot.org), At14-3-3-λ^1−248 (P48349), At14-3-3-ω^1−259 (Q01525); thioredoxin A (trxA) fusion (N, cleaved yes); 8xHis (N, cleaved yes); StrepII (N, cleaved yes); biotin (chemical, EZ-Link NHS-Biotin on amines); made in house; host or cells: E. coli BL21 (DE3) RIL
T2 sequence (Q01525 1-259): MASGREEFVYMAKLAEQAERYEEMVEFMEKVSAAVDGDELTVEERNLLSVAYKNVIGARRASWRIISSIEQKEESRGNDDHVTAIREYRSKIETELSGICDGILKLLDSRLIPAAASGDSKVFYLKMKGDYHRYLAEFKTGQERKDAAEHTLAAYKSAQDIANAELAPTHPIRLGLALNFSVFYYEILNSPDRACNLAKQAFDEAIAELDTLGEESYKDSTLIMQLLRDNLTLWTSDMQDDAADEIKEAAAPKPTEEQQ
Protocol: The binding kinetics of 14-3-3 ω versus the BZR1^169−175 and pBZR1^169−175 peptides (Table 1) were assessed on a Creoptix® WAVE system using a streptavidin-coated 4PCH WAVEchip® (long polycarboxylate matrix; Creoptix AG, Switzerland). Chips were first conditioned with 100 mM sodium borate pH 9.0, 1 m NaCl. Next, after the activation of the chip surface with a 1:1 mix of 400 mM N-(3-dimethylaminopropyl)-N’-ethylcarbodiimide hydrochloride and 100 mM N-[…] hydroxysuccinimide (Xantec, Germany), streptavidin was immobilized on the chip surface through the injection of 50 µg/ml streptavidin (ThermoFisher Scientific 43–4301) in 10 mM sodium acetate pH 5.0 until high density (∼10,000 pg/mm^2) was reached. Biotinylation of 14-3-3 ω for capturing onto streptavidin chip was performed by mixing equimolar amounts of protein and biotin (EZ-Link™ NHS-Biotin ThermoFisher Scientific). A total of 170 µM of 14-3-3 ω were incubated on ice with 170 µM of biotin (previously dissolved in water to 20 mM) for 1.5 min. The biotinylation was performed in 100 mM Hepes pH 8 and 150 mM NaCl. The biotinylated 14-3-3 ω dimer was purified by size exclusion chromatography in 20 mM Hepes pH 7.5 and 150 mM NaCl on a Superdex 10/300 increase column (Cytiva Life Sciences) to verify the homogeneity and to remove excess biotin. Gel-filtrated biotinylated 14-3-3 ω (0.45 mg/ml) was directly immobilized on the streptavidin-coated chip until a density of about 500 pg/ mm^2 was reached. The synthetic BRZ1^169−175 and pBZR1^169−175 peptides were dissolved in 20 mM Hepes and 150 mM NaCl buffer to a final concentration of 10 mM. Kinetic analysis of 14-3-3 ω and BZR1^169−175/pBZR1^169−175 interactions was performed at 25°C by flushing a dilution series of the analyte pBZR1 with a 2 dilution factor starting from 10 µM. Data analysis and data fitting were done using the Creoptix WAVEcontrol® software.

Compound | Kd [1] [µM] | Kd ([2]; Fig. 2D and text, read-out: KD, dissociation constant (GCI)) [nM] | kon ([2]; Fig. 2D, read-out: ka, association rate constant) [M⁻¹ s⁻¹] | koff ([2]; Fig. 2D, read-out: kd, dissociation rate constant) [s⁻¹]
CC(C)C[C@H](NC(=O)[C@H](CCC(=O)O)NC(=O)CNC(=O)[C@@H](N)CCCNC(=N)N)C(=O)N[C@@H](Cc1ccccc1)C(=O)N[C@@H](COP(=O)(O)O)C(=O)N[C@@H](C)C(=O)N1CCC[C@H]1C(=O)O [pBKI1^265-272] (H-RGELF[pS]AP-OH) | 15.9 ± 0.4 |  |  | 
CC[C@H](C)[C@H](NC(=O)[C@@H](N)CCCNC(=N)N)C(=O)N[C@@H](CO)C(=O)N[C@@H](CC(N)=O)C(=O)N[C@@H](COP(=O)(O)O)C(=O)N[C@@H](C)C(=O)N1CCC[C@H]1C(=O)O [pBZR1^169-175] (H-RISN[pS]AP-OH) |  | 520 | 1.67e+06 | 0.87
